{"source": "patent US6297230A", "about": "“Cyanoaziridines for treating cancer” (priority 2000, dated 2001)", "key": {"8226/S myeloma cells": {"tested_on": "8226/S myeloma cells", "assay": "MTT growth inhibition, parental 8226 myeloma cells", "assay_type": "cell-based, human", "conditions": "Homo sapiens, read-out: IC50", "experimental": "(§1) Microculture Tetrazolium (MTT) Assay for Tumor Cells\n(§2) Tumors are disaggregated into single cell suspensions using mechanical, hypoosmotic, and/or enzymatic (trypsin) methods. The cells are plated at a concentration of 3-5×10^4 per […] well into plastic 96-well plates. Growth medium containing 5-10% (vol/vol) heat-inactivated fetal bovine serum and penicillin/streptomycin (both […]) are added prior to incubation at 37° C. for 6 days. Afterwards the medium containing the drug is removed, the cells are centrifuged in fresh medium or phosphate-buffered saline (pH 7.4). A tetrazolium dye, […]-2,5-diphenyl tetrazolium (MTT), is then added. (Mossman, T., J Immunol 65:55-63, 1983.) This dye forms a colored formazan product upon activation by mitochondrial reductases in viable cells. Typically, the formazan product is solubilized in acid-propanol or DMSO. The intensity of the color is proportional to viable cell numbers and this is quantitated by spectrophotometric absorbance at 570 nm on a micro ELISA plate reader. The results are calibrated in % control absorbance from untreated tumor cells. (Alley, et al., Cancer Res 48:589-601, 1988.)\n(§3) The following unpublished studies were performed in vitro to develop and characterize a human myeloma cell line with resistance to imexon-induced cytotoxicity. The original (parental) 8226 cell line was developed by Matsuoka, et al. (Matsuoka, et al., Proc Soc Exp Biol Med 125:1246-1250, 1967). It is a lymphoblastoid cell line which stains for lambda light immunoglobulin production. It grows in vitro in suspension culture (non-adherent) and forms tumors when injected into SCID mice. (Skehan, et al., J Natl Cancer Inst 82:1107-1112, 1990.)\n(§4) One exciting feature of our novel compounds is, that they work on imexon-resistant cells. An imexon-resistant 8226 myeloma cell line was selected by continuously exposing cells to gradually increasing concentrations of imexon up to 3.25 mg/mL. This cell line has slightly longer cell doubling time than 8226 sensitive cells (24 vs 20 hours). […] The dose response curve for imexon continuous exposure was determined using MTT assay. Each data point represents the mean of three experiments performed in 8 replicates.\n(§5) We compared IC50 concentrations and there is a 4-fold resistance observed for the 8226/I-R cell line when the cells were continuously exposed to imexon for […] at 37° C. The degree of resistance was relatively unstable in the absence of the drug, with the resistant cells losing substantial resistance when maintained in imexon-free medium for 20 weeks (FIG. 2).\n(§6) IC50 was measured by MTT assay. IC50 refer to the concentration by drug that results in 50% growth inhibition. A minimum of 2 assays were performed for each drug following 250 mg/mL imexon is equivalent to 6.5 cGy radiation in sensitive cells.\n(§7) Using the colorimetric microculture tetrazolium (MTT) assay, imexon and 25-related analogs were studied for tumor growth inhibition in vitro. Imexon-induced DNA single strand breaks were assessed by alkaline elution. Cells were exposed to imexon for 1 hour prior to start of experiment. The fraction of ^14 C-labeled DNA retained on the filter is plotted against the time of elution. The cells included parental 8226 myeloma cells and the 8226 imexon-resistant cells exposed to drug (imexon or analog) continuously for 10 days at 37° C. At the end of the exposure period, the cells were analyzed for viability using the formazan-forming tetrazolium dye (MTT) assay."}, "8226/I-R myeloma cells": {"tested_on": "8226/I-R myeloma cells", "assay": "MTT growth inhibition, imexon-resistant 8226 myeloma cells", "assay_type": "cell-based, human", "conditions": "for IC50: Homo sapiens, read-out: IC50; for Fold Resistance (IC50 resistant cells/IC50 sensitive cells): Table 4, 8226/I-R vs 8226/S", "experimental": "as §1, §2, §3, §4, §5, §6, §7"}, "[1]": {"tested_on": "DNA of 8226 myeloma cells", "assay": "Imexon-induced DNA single strand breaks by alkaline elution", "assay_type": "cell-based, human", "conditions": "for DNA single strand breaks: 8226 cells, 10-500 μg/mL", "experimental": "as §7\nThese strand breaks are noted by an enhanced rate of ^14 C-DNA elution through the filters after a one-hour exposure to imexon (10-500 μg/mL) at 30° C. At high imexon concentrations of≥100 μg/mL, over 75% of the radiolabeled DNA is eluted through the filters over the test period. By comparison, control cell DNA is highly retained (>95%) on the filter over the same 24-hour elution period."}, "Myelosuppression": {"assay": "Myelosuppression", "conditions": "in vivo"}, "Oral activity in mice": {"assay": "Oral activity in mice", "assay_type": "in vivo"}, "[2]": {"assay": "Tolerability and activity on prolonged dosing in tumor-bearing mice and dogs", "assay_type": "in vivo", "conditions": "suggested by prior studies in mice and dogs"}, "[3]": {"tested_on": "AIDS-related lymphoma / lymphoma cells", "assay": "Activity against lymphoma cells in vitro", "assay_type": "cell-based", "conditions": "Table 1B"}, "[4]": {"tested_on": "human prostate cancer tumors", "assay": "Activity in prostate cancer in SCID mouse model", "assay_type": "in vivo, human tumors in SCID mice", "conditions": "Table 1B"}, "[5]": {"tested_on": "advanced solid tumors in cancer patients", "conditions": "cited from earlier work; for Clinical response: Phase I clinical trials"}, "[6]": {"conditions": "cited from earlier work"}, "human tumor cell lines": {"tested_on": "human tumor cell lines", "conditions": "in culture; cited from earlier work"}, "[7]": {"tested_on": "multiple myeloma (clonogenic assay)", "conditions": "cited from earlier work"}, "transplanted tumors": {"tested_on": "transplanted tumors", "conditions": "rodents; cited from earlier work"}, "[8]": {"tested_on": "human lymphoma, melanoma, and prostate cancer cell lines", "conditions": "cited from earlier work"}, "mast cell tumors": {"tested_on": "mast cell tumors", "conditions": "cited from earlier work"}, "[9]": {"conditions": "background statement; cited from earlier work"}, "MCF-7/MITOX cells": {"tested_on": "MCF-7/MITOX cells", "conditions": "cited from earlier work"}, "[10]": {"tested_on": "OVCAR-3 ovarian carcinoma cells", "conditions": "cited from earlier work"}, "[11]": {"tested_on": "L-1210 MDR leukemia cells", "conditions": "cited from earlier work"}, "WiDr MITOX cells": {"tested_on": "WiDr MITOX cells", "conditions": "cited from earlier work"}, "MCF-7/ADR cells": {"tested_on": "MCF-7/ADR cells", "conditions": "cited from earlier work"}, "MCF-7/D40 cells": {"tested_on": "MCF-7/D40 cells", "conditions": "MCF-7/DOX40; cited from earlier work"}}, "note": "Where two headings read alike, the source gives them in different places."}
{"smiles": "N=C1NC(=O)N2CC12", "note": "(stereo not shown) [AMP 400, 4-imino-1,3-diazabicyclo[3.1.0]hexan-2-one]", "values": [{"measurement": "IC50", "setting": "8226/S myeloma cells; 8226/S, MTT", "result": 27, "unit": "µM"}, {"measurement": "IC50", "setting": "8226/S myeloma cells; Table 5, Sensitive (parental) 8226", "result": 1, "unit": "µg/mL"}, {"measurement": "IC50", "setting": "8226/I-R myeloma cells; 8226/I-R, MTT", "result": 120, "unit": "µM"}, {"measurement": "IC50", "setting": "8226/I-R myeloma cells; Table 5, imexon-resistant 8226", "result": 8.5, "unit": "µg/mL"}, {"measurement": "Fold Resistance (IC50 resistant cells/IC50 sensitive cells)", "setting": "8226/I-R myeloma cells", "result": 4.44}, {"measurement": "Fold Resistance of IC50 R/IC50 's", "setting": "8226/I-R myeloma cells; Table 5, imexon-resistant vs sensitive 8226", "result": 4.5}, {"measurement": "Fold resistance", "setting": "8226/I-R myeloma cells; continuous exposure for 5 days at 37° C", "result": 4, "unit": "fold"}, {"measurement": "DNA single strand breaks", "setting": "[1]; one-hour exposure, listed as Imexon", "result": "induced single strand breaks in both 8226 imexon-sensitive and resistant cells"}, {"measurement": "DNA single strand breaks", "setting": "[1]; one-hour exposure, listed as imexon", "result": "induces concentration-dependent single-stranded breaks in tumor cell DNA"}, {"measurement": "DNA strand breaks, resistant vs sensitive cells", "setting": "[1]; given dose of imexon, p<0.05", "result": "fewer strand breaks in imexon-resistant cells than in sensitive cells"}, {"measurement": "Radiolabeled DNA eluted over the test period", "setting": "[1]; imexon ≥100 μg/mL, one-hour exposure", "result": "over 75%"}, {"measurement": "Radiation equivalent of 250 mg/mL imexon", "setting": "[1]; sensitive cells, 250 μg/mL imexon", "result": 6.5, "unit": "cGy"}, {"measurement": "Myelosuppression", "setting": "Myelosuppression", "result": "has not demonstrated myelosuppressive toxicity"}, {"measurement": "Oral activity", "setting": "Oral activity in mice", "result": "not active orally in mice"}, {"measurement": "Maximally-tolerated human dose", "setting": "[2]", "result": "approximately 500 mg/m^2 /day"}, {"measurement": "Activity in lymphoma in vitro", "setting": "[3]", "result": "active in vitro"}, {"measurement": "Activity in prostate cancer", "setting": "[4]", "result": "active in"}, {"measurement": "Clinical response", "setting": "[5]; listed as Imexon", "result": "produced objective responses or stabilized neoplastic diseases in cancer patients"}, {"measurement": "Clinical response", "setting": "[5]; listed as parent compound", "result": "parent compound"}, {"measurement": "Additional patients with disease stabilization", "setting": "[5]; advanced tumors", "result": 8, "unit": "patients"}, {"measurement": "Duration of disease stabilization", "setting": "[5]; advanced tumors", "result": "4-24 months"}, {"measurement": "Objective responses, evaluable patients", "setting": "[5]; breast cancer", "result": "1/7"}, {"measurement": "Duration of complete disappearance of measurable disease", "setting": "[5]; lung cancer", "result": 33, "unit": "months"}, {"measurement": "Objective responses, evaluable patients", "setting": "[5]; lung cancer", "result": "1/7"}, {"measurement": "Duration of complete disappearance of measurable disease", "setting": "[5]; melanoma", "result": 42, "unit": "months"}, {"measurement": "Objective responses, evaluable patients", "setting": "[5]; melanoma", "result": "1/7"}, {"measurement": "Stable disease, number of patients", "setting": "[5]; one NSCLC, four breast cancer, one liver cancer", "result": 6, "unit": "patients"}, {"measurement": "Duration of complete remission", "setting": "[5]; one patient, metastatic NSCLC", "result": "over 14 years"}, {"measurement": "Tolerability", "setting": "[6]; Phase I, Europe, 1985", "result": "well tolerated"}, {"measurement": "Nausea (mild, transient)", "setting": "[6]; patients", "result": 13, "unit": "%"}, {"measurement": "Vomiting", "setting": "[6]; patients", "result": 23, "unit": "%"}, {"measurement": "Activity against human tumor cell lines", "setting": "human tumor cell lines", "result": "active against a variety of human tumor cell lines in culture"}, {"measurement": "Cytotoxicity to multiple myeloma", "setting": "[7]", "result": "selectively cytotoxic to multiple myeloma in the clonogenic assay"}, {"measurement": "Activity against transplanted tumors", "setting": "transplanted tumors", "result": "active against a variety of transplanted tumors in rodents"}, {"measurement": "Activity against human tumor cell lines in SCID mice", "setting": "[8]", "result": "active against human lymphoma, melanoma, and prostate cancer cell lines in SCID mice"}, {"measurement": "Objective responses in dogs", "setting": "mast cell tumors", "result": "Objective responses were observed in dogs with mast cell tumors"}, {"measurement": "Myelosuppression", "setting": "[9]", "result": "not myelosuppressive"}]}
{"smiles": "COc1cccc2c1C(=O)c1c(O)c3c(c(O)c1C2=O)C[C@@](O)(C(=O)CO)C[C@@H]3O[C@H]1C[C@H](N)[C@H](O)[C@H](C)O1", "note": "[Doxorubicin]", "values": [{"measurement": "IC50", "setting": "8226/S myeloma cells; 8226/S, MTT", "result": 0.00043, "unit": "µM"}, {"measurement": "Cross-resistance of imexon-resistant cells", "setting": "8226/I-R myeloma cells; 8226 imexon-resistant cells, MTT", "result": "remains sensitive"}, {"measurement": "IC50", "setting": "8226/I-R myeloma cells; 8226/I-R, MTT", "result": 0.00032, "unit": "µM"}, {"measurement": "Fold Resistance (IC50 resistant cells/IC50 sensitive cells)", "setting": "8226/I-R myeloma cells", "result": 0.79}, {"measurement": "Resistance of MCF-7/MITOX", "setting": "MCF-7/MITOX cells", "result": "only partially resistant"}, {"measurement": "Resistance of OVCAR-3", "setting": "[10]", "result": "resistant in vitro to clinically relevant concentrations"}, {"measurement": "Cross-resistance of L-1210 MDR", "setting": "[11]", "result": "cross-resistant"}, {"measurement": "Fold resistance of WiDr MITOX cells", "setting": "WiDr MITOX cells", "result": 8, "unit": "fold"}, {"measurement": "Decrease in sensitivity to doxorubicin", "setting": "MCF-7/ADR cells", "result": 192, "unit": "fold"}]}
{"smiles": "COc1ccc(CCN(C)CCCC(C#N)(c2ccc(OC)c(OC)c2)C(C)C)cc1OC", "note": "(stereo not shown) [verapamil]", "values": [{"measurement": "Reversal of resistance", "setting": "MCF-7/D40 cells", "result": "sensitized (resistance reversed)"}, {"measurement": "Reversal of resistance", "setting": "MCF-7/MITOX cells", "result": "resistance is not modulated (reversed)"}, {"measurement": "Reversal of resistance", "setting": "[11]", "result": "resistance can be reversed"}]}
